Results published in the NIST ThermoML archive (doi:10.1021/je050065n).
Numbers after ± are expanded uncertainties.

Key:
[1] = Molar enthalpy of transition or fusion; conditions: Crystal
[2] = molar heat capacity at constant pressure; conditions: 101.33 kPa

## CCCCCCCCCCC(=O)OCC [ethyl undecanoate]
Crystal
  Triple point temperature: 259.17 ± 0.31 K
Metastable crystal
  Normal melting temperature: -21.8 ± 0.1 °C
[1]
  Molar enthalpy of transition or fusion: 8.628 ± 0.0717 kcal/mol
[2]; 111.58 K, Crystal
  molar heat capacity at constant pressure: 173.66 ± 3 J/K/mol
[2]; 113.84 K, Crystal
  molar heat capacity at constant pressure: 175.94 ± 3 J/K/mol
[2]; 116.71 K, Crystal
  molar heat capacity at constant pressure: 178.91 ± 3 J/K/mol
[2]; 119.57 K, Crystal
  molar heat capacity at constant pressure: 181.88 ± 3.1 J/K/mol
[2]; 122.42 K, Crystal
  molar heat capacity at constant pressure: 185.27 ± 3.1 J/K/mol
[2]; 128.15 K, Crystal
  molar heat capacity at constant pressure: 190.48 ± 3.1 J/K/mol
[2]; 131.02 K, Crystal
  molar heat capacity at constant pressure: 194.47 ± 3.2 J/K/mol
[2]; 133.86 K, Crystal
  molar heat capacity at constant pressure: 198.69 ± 3.2 J/K/mol
[2]; 136.66 K, Crystal
  molar heat capacity at constant pressure: 198.56 ± 3.2 J/K/mol
[2]; 139.44 K, Crystal
  molar heat capacity at constant pressure: 201.64 ± 3.2 J/K/mol
[2]; 142.19 K, Crystal
  molar heat capacity at constant pressure: 204.69 ± 3.2 J/K/mol
[2]; 144.9 K, Crystal
  molar heat capacity at constant pressure: 207.94 ± 3.3 J/K/mol
[2]; 147.59 K, Crystal
  molar heat capacity at constant pressure: 211.29 ± 3.3 J/K/mol
[2]; 150.26 K, Crystal
  molar heat capacity at constant pressure: 213.75 ± 3.3 J/K/mol
[2]; 152.89 K, Crystal
  molar heat capacity at constant pressure: 217.3 ± 3.3 J/K/mol
[2]; 155.51 K, Crystal
  molar heat capacity at constant pressure: 220.97 ± 3.4 J/K/mol
[2]; 158.1 K, Crystal
  molar heat capacity at constant pressure: 224.09 ± 3.4 J/K/mol
[2]; 160.67 K, Crystal
  molar heat capacity at constant pressure: 229.12 ± 3.4 J/K/mol
[2]; 163.21 K, Crystal
  molar heat capacity at constant pressure: 233.25 ± 3.5 J/K/mol
[2]; 165.73 K, Crystal
  molar heat capacity at constant pressure: 236.15 ± 3.5 J/K/mol
[2]; 168.24 K, Crystal
  molar heat capacity at constant pressure: 230.57 ± 3.4 J/K/mol
[2]; 170.74 K, Crystal
  molar heat capacity at constant pressure: 232.17 ± 3.5 J/K/mol
[2]; 173.23 K, Crystal
  molar heat capacity at constant pressure: 234.76 ± 3.5 J/K/mol
[2]; 175.7 K, Crystal
  molar heat capacity at constant pressure: 236.78 ± 3.5 J/K/mol
[2]; 178.15 K, Crystal
  molar heat capacity at constant pressure: 239.4 ± 3.5 J/K/mol
[2]; 180.59 K, Crystal
  molar heat capacity at constant pressure: 242.15 ± 3.5 J/K/mol
[2]; 183.01 K, Crystal
  molar heat capacity at constant pressure: 244.19 ± 3.5 J/K/mol
[2]; 185.42 K, Crystal
  molar heat capacity at constant pressure: 245.75 ± 3.6 J/K/mol
[2]; 187.81 K, Crystal
  molar heat capacity at constant pressure: 248.17 ± 3.6 J/K/mol
[2]; 190.18 K, Crystal
  molar heat capacity at constant pressure: 251.89 ± 3.6 J/K/mol
[2]; 192.55 K, Crystal
  molar heat capacity at constant pressure: 256.43 ± 3.6 J/K/mol
[2]; 194.9 K, Crystal
  molar heat capacity at constant pressure: 257.21 ± 3.7 J/K/mol
[2]; 197.24 K, Crystal
  molar heat capacity at constant pressure: 257.78 ± 3.7 J/K/mol
[2]; 199.56 K, Crystal
  molar heat capacity at constant pressure: 262.12 ± 3.7 J/K/mol
[2]; 201.88 K, Crystal
  molar heat capacity at constant pressure: 266.33 ± 3.7 J/K/mol
[2]; 204.18 K, Crystal
  molar heat capacity at constant pressure: 269.86 ± 3.8 J/K/mol
[2]; 206.47 K, Crystal
  molar heat capacity at constant pressure: 268.45 ± 3.8 J/K/mol
[2]; 208.75 K, Crystal
  molar heat capacity at constant pressure: 272.25 ± 3.8 J/K/mol
[2]; 211.01 K, Crystal
  molar heat capacity at constant pressure: 276.09 ± 3.8 J/K/mol
[2]; 213.26 K, Crystal
  molar heat capacity at constant pressure: 279.59 ± 3.8 J/K/mol
[2]; 215.5 K, Crystal
  molar heat capacity at constant pressure: 279.55 ± 3.8 J/K/mol
[2]; 217.73 K, Crystal
  molar heat capacity at constant pressure: 283.48 ± 3.9 J/K/mol
[2]; 219.95 K, Crystal
  molar heat capacity at constant pressure: 287.5 ± 3.9 J/K/mol
[2]; 222.16 K, Crystal
  molar heat capacity at constant pressure: 290.42 ± 3.9 J/K/mol
[2]; 224.36 K, Crystal
  molar heat capacity at constant pressure: 293.74 ± 4 J/K/mol
[2]; 226.54 K, Crystal
  molar heat capacity at constant pressure: 297.69 ± 4 J/K/mol
[2]; 228.71 K, Crystal
  molar heat capacity at constant pressure: 302.05 ± 4 J/K/mol
[2]; 230.87 K, Crystal
  molar heat capacity at constant pressure: 307.08 ± 4.1 J/K/mol
[2]; 233.01 K, Crystal
  molar heat capacity at constant pressure: 312.1 ± 4.1 J/K/mol
[2]; 235.14 K, Crystal
  molar heat capacity at constant pressure: 318.94 ± 4.2 J/K/mol
[2]; 237.26 K, Crystal
  molar heat capacity at constant pressure: 327.12 ± 4.2 J/K/mol
[2]; 239.36 K, Crystal
  molar heat capacity at constant pressure: 337.32 ± 4.3 J/K/mol
[2]; 241.44 K, Crystal
  molar heat capacity at constant pressure: 349.15 ± 4.4 J/K/mol
[2]; 243.49 K, Crystal
  molar heat capacity at constant pressure: 366.65 ± 4.5 J/K/mol
[2]; 245.51 K, Crystal
  molar heat capacity at constant pressure: 390.29 ± 4.7 J/K/mol
[2]; 247.49 K, Crystal
  molar heat capacity at constant pressure: 425.06 ± 5 J/K/mol
[2]; 265.23 K, Liquid
  molar heat capacity at constant pressure: 419.66 ± 2.5 J/K/mol
[2]; 267.18 K, Liquid
  molar heat capacity at constant pressure: 419.56 ± 2.5 J/K/mol
[2]; 269.12 K, Liquid
  molar heat capacity at constant pressure: 420.55 ± 2.5 J/K/mol
[2]; 271.06 K, Liquid
  molar heat capacity at constant pressure: 421.01 ± 2.5 J/K/mol
[2]; 272.99 K, Liquid
  molar heat capacity at constant pressure: 421.34 ± 2.5 J/K/mol
[2]; 274.93 K, Liquid
  molar heat capacity at constant pressure: 422.4 ± 2.5 J/K/mol
[2]; 276.86 K, Liquid
  molar heat capacity at constant pressure: 423.5 ± 2.5 J/K/mol
[2]; 278.79 K, Liquid
  molar heat capacity at constant pressure: 424.54 ± 2.5 J/K/mol
[2]; 280.72 K, Liquid
  molar heat capacity at constant pressure: 424.74 ± 2.5 J/K/mol
[2]; 282.65 K, Liquid
  molar heat capacity at constant pressure: 425.25 ± 2.5 J/K/mol
[2]; 284.57 K, Liquid
  molar heat capacity at constant pressure: 425.82 ± 2.5 J/K/mol
[2]; 286.49 K, Liquid
  molar heat capacity at constant pressure: 426.92 ± 2.5 J/K/mol
[2]; 288.42 K, Liquid
  molar heat capacity at constant pressure: 427.56 ± 2.5 J/K/mol
[2]; 290.34 K, Liquid
  molar heat capacity at constant pressure: 427.6 ± 2.5 J/K/mol
[2]; 292.25 K, Liquid
  molar heat capacity at constant pressure: 429.47 ± 2.5 J/K/mol
[2]; 292.35 K, Liquid
  molar heat capacity at constant pressure: 429.73 ± 2.5 J/K/mol
[2]; 293.82 K, Liquid
  molar heat capacity at constant pressure: 430.15 ± 2.5 J/K/mol
[2]; 294.17 K, Liquid
  molar heat capacity at constant pressure: 430.48 ± 2.5 J/K/mol
[2]; 295.74 K, Liquid
  molar heat capacity at constant pressure: 431.35 ± 2.5 J/K/mol
[2]; 296.09 K, Liquid
  molar heat capacity at constant pressure: 431.3 ± 2.5 J/K/mol
[2]; 297.65 K, Liquid
  molar heat capacity at constant pressure: 432.04 ± 2.5 J/K/mol
[2]; 298 K, Liquid
  molar heat capacity at constant pressure: 431.45 ± 2.5 J/K/mol
[2]; 299.55 K, Liquid
  molar heat capacity at constant pressure: 433.51 ± 2.5 J/K/mol
[2]; 299.92 K, Liquid
  molar heat capacity at constant pressure: 432.3 ± 2.5 J/K/mol
[2]; 301.45 K, Liquid
  molar heat capacity at constant pressure: 434.67 ± 2.5 J/K/mol
[2]; 301.84 K, Liquid
  molar heat capacity at constant pressure: 434.2 ± 2.5 J/K/mol
[2]; 303.35 K, Liquid
  molar heat capacity at constant pressure: 436.03 ± 2.5 J/K/mol
[2]; 303.75 K, Liquid
  molar heat capacity at constant pressure: 436.09 ± 2.5 J/K/mol
[2]; 305.23 K, Liquid
  molar heat capacity at constant pressure: 437.3 ± 2.5 J/K/mol
[2]; 305.67 K, Liquid
  molar heat capacity at constant pressure: 436.86 ± 2.5 J/K/mol
[2]; 307.12 K, Liquid
  molar heat capacity at constant pressure: 438.29 ± 2.5 J/K/mol
[2]; 307.58 K, Liquid
  molar heat capacity at constant pressure: 437.94 ± 2.5 J/K/mol
[2]; 309 K, Liquid
  molar heat capacity at constant pressure: 438.55 ± 2.5 J/K/mol
[2]; 309.5 K, Liquid
  molar heat capacity at constant pressure: 438.69 ± 2.5 J/K/mol
[2]; 310.87 K, Liquid
  molar heat capacity at constant pressure: 439.73 ± 2.6 J/K/mol
[2]; 311.41 K, Liquid
  molar heat capacity at constant pressure: 439.51 ± 2.6 J/K/mol
[2]; 312.74 K, Liquid
  molar heat capacity at constant pressure: 440.36 ± 2.6 J/K/mol
[2]; 313.32 K, Liquid
  molar heat capacity at constant pressure: 440.63 ± 2.6 J/K/mol
[2]; 314.61 K, Liquid
  molar heat capacity at constant pressure: 441.72 ± 2.6 J/K/mol
[2]; 315.24 K, Liquid
  molar heat capacity at constant pressure: 441.69 ± 2.6 J/K/mol
[2]; 316.48 K, Liquid
  molar heat capacity at constant pressure: 441.83 ± 2.6 J/K/mol
[2]; 317.15 K, Liquid
  molar heat capacity at constant pressure: 443.16 ± 2.6 J/K/mol
[2]; 318.35 K, Liquid
  molar heat capacity at constant pressure: 443.44 ± 2.6 J/K/mol
[2]; 320.22 K, Liquid
  molar heat capacity at constant pressure: 444.36 ± 2.6 J/K/mol
[2]; 322.09 K, Liquid
  molar heat capacity at constant pressure: 445.9 ± 2.6 J/K/mol
[2]; 323.96 K, Liquid
  molar heat capacity at constant pressure: 447.6 ± 2.6 J/K/mol
[2]; 325.83 K, Liquid
  molar heat capacity at constant pressure: 448.49 ± 2.6 J/K/mol
[2]; 327.7 K, Liquid
  molar heat capacity at constant pressure: 449.5 ± 2.6 J/K/mol
[2]; 329.57 K, Liquid
  molar heat capacity at constant pressure: 450.4 ± 2.6 J/K/mol
[2]; 331.44 K, Liquid
  molar heat capacity at constant pressure: 451.66 ± 2.6 J/K/mol
[2]; 333.31 K, Liquid
  molar heat capacity at constant pressure: 453.33 ± 2.6 J/K/mol
[2]; 335.19 K, Liquid
  molar heat capacity at constant pressure: 455.41 ± 2.6 J/K/mol
[2]; 337.06 K, Liquid
  molar heat capacity at constant pressure: 456.14 ± 2.6 J/K/mol
[2]; 338.94 K, Liquid
  molar heat capacity at constant pressure: 456.81 ± 2.6 J/K/mol
[2]; 340.81 K, Liquid
  molar heat capacity at constant pressure: 458.35 ± 2.6 J/K/mol
[2]; 342.69 K, Liquid
  molar heat capacity at constant pressure: 459.47 ± 2.6 J/K/mol
[2]; 344.57 K, Liquid
  molar heat capacity at constant pressure: 461 ± 2.6 J/K/mol
[2]; 346.45 K, Liquid
  molar heat capacity at constant pressure: 462.31 ± 2.6 J/K/mol
[2]; 348.34 K, Liquid
  molar heat capacity at constant pressure: 463.75 ± 2.7 J/K/mol
[2]; 350.22 K, Liquid
  molar heat capacity at constant pressure: 465.1 ± 2.7 J/K/mol
[2]; 352.11 K, Liquid
  molar heat capacity at constant pressure: 466.34 ± 2.7 J/K/mol
[2]; 354 K, Liquid
  molar heat capacity at constant pressure: 467.34 ± 2.7 J/K/mol
[2]; 355.9 K, Liquid
  molar heat capacity at constant pressure: 468.59 ± 2.7 J/K/mol
[2]; 357.8 K, Liquid
  molar heat capacity at constant pressure: 469.5 ± 2.7 J/K/mol
[2]; 359.7 K, Liquid
  molar heat capacity at constant pressure: 471.05 ± 2.7 J/K/mol
[2]; 361.6 K, Liquid
  molar heat capacity at constant pressure: 472.21 ± 2.7 J/K/mol
[2]; 363.51 K, Liquid
  molar heat capacity at constant pressure: 473.69 ± 2.7 J/K/mol
[2]; 365.42 K, Liquid
  molar heat capacity at constant pressure: 475.18 ± 2.7 J/K/mol
